# Laboratory results: patent US10202368B2, “CXCR7 receptor modulators” (IDORSIA PHARMACEUTICALS LTD, priority 2014, dated 2019)
# Target: CXCR7 (Homo sapiens (Human), UniProt P25106)
# Assay: PathHunter CHO-K1 CXCR7 β-arrestin assay (agonistic activity)
# Type: cell-based
# Conditions: β-arrestin recruitment in PathHunter CHO-K1 CXCR7 β-arrestin cells, 90 minutes at 37° C., geometric mean values
# Method in brief: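 The enzyme-fragment complementation format pairs ProLink-tagged CXCR7 with EA–β-arrestin 2 in CHO-K1 cells, seeded at 5000/well for 24 h and serum-starved in OPTIMEM 3–4 h. Compounds were added in HBSS/20 mM HEPES/0.2% BSA for 90 min at 37 °C, followed by 1 h detection at room temperature and chemiluminescence read-out. EC50 is the geometric mean of several measurements.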
# Sequence of CXCR7 (P25106 whole entry): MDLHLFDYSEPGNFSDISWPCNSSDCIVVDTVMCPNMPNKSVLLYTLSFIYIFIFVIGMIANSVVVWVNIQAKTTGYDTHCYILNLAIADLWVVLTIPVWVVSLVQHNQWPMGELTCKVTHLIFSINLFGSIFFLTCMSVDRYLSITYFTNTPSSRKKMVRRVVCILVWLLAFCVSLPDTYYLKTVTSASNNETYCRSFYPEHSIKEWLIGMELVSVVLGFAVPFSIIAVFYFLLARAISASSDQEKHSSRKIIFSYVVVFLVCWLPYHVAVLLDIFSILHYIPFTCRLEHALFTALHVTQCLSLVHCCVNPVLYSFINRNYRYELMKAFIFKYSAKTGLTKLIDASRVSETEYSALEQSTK
# Sequence of CXCR7 (P32121 whole entry partner): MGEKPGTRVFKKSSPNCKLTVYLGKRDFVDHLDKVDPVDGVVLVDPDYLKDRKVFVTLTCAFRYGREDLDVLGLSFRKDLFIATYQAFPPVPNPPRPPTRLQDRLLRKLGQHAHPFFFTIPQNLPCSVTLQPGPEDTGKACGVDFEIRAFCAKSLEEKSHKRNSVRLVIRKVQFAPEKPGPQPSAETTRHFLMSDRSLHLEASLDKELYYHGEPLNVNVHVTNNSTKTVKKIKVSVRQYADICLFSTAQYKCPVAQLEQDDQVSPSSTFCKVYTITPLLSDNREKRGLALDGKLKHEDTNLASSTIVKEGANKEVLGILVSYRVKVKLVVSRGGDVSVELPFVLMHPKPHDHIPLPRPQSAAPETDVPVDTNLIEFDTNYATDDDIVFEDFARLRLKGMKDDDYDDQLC
row,SMILES,EC50 [nM]
1,"CN(CCN(Cc1ccccc1C(F)(F)F)C(=O)CNc1cccc2c1C(=O)N(CC1CC1)CCO2)C(=O)OC(C)(C)C [Example 37, {2-[[2-(4-Cyclopropylmethyl-5-oxo-2,3,4,5-tetrahydro-benzo[f][1,4]oxazepin-6-ylamino)-acetyl]-(2-trifluoromethyl-benzyl)-amino]-ethyl}-methyl-carbamic acid tert-butyl ester]",410
2,"CCN1CCN(CC)c2c(NCC(=O)N(CCN3CCCC3)Cc3ncccc3C(F)(F)F)cccc2C1=O [Example 48, 2-(1,4-Diethyl-5-oxo-2,3,4,5-tetrahydro-1H-benzo[e][1,4]diazepin-9-ylamino)-N-(2-pyrrolidin-1-yl-ethyl)-N-(3-trifluoromethyl-pyridin-2-ylmethyl)-acetamide]",47
3,"CC(C)NCCN(Cc1ccccc1C(F)(F)F)C(=O)CNc1cccc2c1N(C)CCN(CC1CC1)C2=O [Example 46, 2-(4-Cyclopropylmethyl-1-methyl-5-oxo-2,3,4,5-tetrahydro-1H-benzo[e][1,4]diazepin-9-ylamino)-N-(2-isopropylamino-ethyl)-N-(2-trifluoromethyl-benzyl)-acetamide]",5
4,"CCN1CCOc2c(NCC(=O)N(CCNC(C)C)Cc3ccccc3C(F)(F)F)cccc2C1=O [Example 56, 2-(4-Ethyl-5-oxo-2,3,4,5-tetrahydro-benzo[f][1,4]oxazepin-9-ylamino)-N-(2-isopropylamino-ethyl)-N-(2-trifluoromethyl-benzyl)-acetamide]",16
5,"CN(C)CCN(Cc1ccccc1C(F)(F)F)C(=O)CNc1cccc2c1CN(CC1CC1)CCO2 [Example 22, 2-(4-Cyclopropylmethyl-2,3,4,5-tetrahydro-benzo[f][1,4]oxazepin-6-ylamino)-N-(2-dimethylamino-ethyl)-N-(2-trifluoromethyl-benzyl)-acetamide]",4
6,"CNCCN(Cc1ccccc1C(F)(F)F)C(=O)CNc1cccc2c1C(=O)N(CC1CC1)CCO2 [Example 36, 2-(4-Cyclopropylmethyl-5-oxo-2,3,4,5-tetrahydro-benzo[f][1,4]oxazepin-6-ylamino)-N-(2-methylamino-ethyl)-N-(2-trifluoromethyl-benzyl)-acetamide]",12
7,"CN(C)CCN(Cc1ccccc1C(F)(F)F)C(=O)CNc1cccc2c1OCC(=O)N(CC1CC1)C2 [Example 67, 2-(4-Cyclopropylmethyl-3-oxo-2,3,4,5-tetrahydro-benzo[f][1,4]oxazepin-9-ylamino)-N-(2-dimethylamino-ethyl)-N-(2-trifluoromethyl-benzyl)-acetamide]",37
8,"CN(C)CCN(Cc1ccccc1C(F)(F)F)C(=O)COc1cccc2c1CCN(CC1CC1)CC2 [Example 23, 2-(3-Cyclopropylmethyl-2,3,4,5-tetrahydro-1H-benzo[d]azepin-6-yloxy)-N-(2-dimethylamino-ethyl)-N-(2-trifluoromethyl-benzyl)-acetamide]",1
9,"CN(C)CCN(Cc1ccccc1C(F)(F)F)C(=O)CNc1cccc2c1C(=O)N(CC1CC1)CCO2 [Example 38, 2-(4-Cyclopropylmethyl-5-oxo-2,3,4,5-tetrahydro-benzo[f][1,4]oxazepin-6-ylamino)-N-(2-dimethylamino-ethyl)-N-(2-trifluoromethyl-benzyl)-acetamide]",4
10,"Cc1cccc(CN(CCN(C)C)C(=O)CNc2cccc3c2C(=O)N(CC2CC2)CCO3)n1 [Example 33, 2-(4-Cyclopropylmethyl-5-oxo-2,3,4,5-tetrahydro-benzo[f][1,4]oxazepin-6-ylamino)-N-(2-dimethylamino-ethyl)-N-(6-methyl-pyridin-2-ylmethyl)-acetamide]",24
11,"COCC(=O)N1CCc2cccc(OCC(=O)N(CCN(C)C)Cc3ccccc3C(F)(F)F)c2CC1 [Example 24, N-(2-Dimethylamino-ethyl)-2-[3-(2-methoxy-acetyl)-2,3,4,5-tetrahydro-1H-benzo[d]azepin-6-yloxy]-N-(2-trifluoromethyl-benzyl)-acetamide]",3
12,"CN(C)CCN(Cc1ccccc1C(F)(F)F)C(=O)CNc1cccc2c1N(C)CCN(CC1CC1)C2 [Example 49, 2-(4-Cyclopropylmethyl-1-methyl-2,3,4,5-tetrahydro-1H-benzo[e][1,4]diazepin-9-ylamino)-N-(2-dimethylamino-ethyl)-N-(2-trifluoromethyl-benzyl)-acetamide]",2
13,"CC(C)CN1CCOc2c(cccc2NCC(=O)N(CCN(C)C2CC2)Cc2ccccc2C(F)(F)F)C1 [Example 10, N-[2-(Cyclopropyl-methyl-amino)-ethyl]-2-(4-isobutyl-2,3,4,5-tetrahydro-benzo[f][1,4]oxazepin-9-ylamino)-N-(2-trifluoromethyl-benzyl)-acetamide]",58
14,"CC(C)CN1CCOc2c(cccc2NCC(=O)N(CCN(C)C)Cc2cccc(C(F)(F)F)c2)C1 [Example 18, N-(2-Dimethylamino-ethyl)-2-(4-isobutyl-2,3,4,5-tetrahydro-benzo[f][1,4]oxazepin-9-ylamino)-N-(3-trifluoromethyl-benzyl)-acetamide]",53
15,"CCN1CCOc2c(cccc2NCC(=O)N(CCN2CCCC2)Cc2ncccc2Cl)C1 [Example 75, N-(3-Chloro-pyridin-2-ylmethyl)-2-(4-ethyl-2,3,4,5-tetrahydro-benzo[f][1,4]oxazepin-9-ylamino)-N-(2-pyrrolidin-1-yl-ethyl)-acetamide]",19
16,"CCN1CCOc2c(NCC(=O)N(CCN3CCCC3)Cc3ncccc3Cl)cccc2C1=O [Example 59, N-(3-Chloro-pyridin-2-ylmethyl)-2-(4-ethyl-5-oxo-2,3,4,5-tetrahydro-benzo[f][1,4]oxazepin-9-ylamino)-N-(2-pyrrolidin-1-yl-ethyl)-acetamide]",260
